Results taken from patent publication US7074796B2 (H. Lundbeck A/S, priority 1999, dated 2006).
Counter-ions that a name gives are not always drawn.

| SMILES | melting point |
| --- | --- |
| Clc1cccc(N2CCN(CCCCC3CCc4ccccc43)CC2)c1Cl (centres unmarked) (as salt: oxalate) [Compound 3, 1-(2,3-Dichlorophenyl)-4-[4-(indan-1-yl)butyl]piperazine] | 171 to 176 °C |
| Clc1ccc2c(SCCN3CCN(c4cccc(Cl)c4Cl)CC3)c[nH]c2c1 (as salt: oxalate) [Compound 4, 6-Chloro-3-{2-[4-(2,3-dichlorophenyl)piperazin-1-yl]ethylsulfanyl}-1H-indole] | 137 to 141 °C |
